Laboratory results as given in paper PMC9462760, “A potent and selective inhibitor for the modulation of MAGL activity in the neurovasculature” (PLoS ONE, 2022).

Legend:
[1] = biological target: T1, Monoacylglycerol lipase (MAGL) (Mus musculus, UniProt O35678); assay: competitive ABPP in mouse brain lysate at […] ([…] decrease of MAGL signal); assay type: cell-based
T1 construct: gene Mgll
T1 sequence (O35678 1-303): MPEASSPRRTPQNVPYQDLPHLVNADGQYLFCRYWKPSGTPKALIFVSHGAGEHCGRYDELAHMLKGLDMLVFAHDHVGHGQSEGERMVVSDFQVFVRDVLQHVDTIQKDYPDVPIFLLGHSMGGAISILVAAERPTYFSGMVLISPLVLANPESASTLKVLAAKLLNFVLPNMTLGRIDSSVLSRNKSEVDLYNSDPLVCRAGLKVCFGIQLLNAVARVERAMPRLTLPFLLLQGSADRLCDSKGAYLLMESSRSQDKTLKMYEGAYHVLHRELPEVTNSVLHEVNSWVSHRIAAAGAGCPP

[2] = biological target: T2, Monoacylglycerol lipase (MAGL) (Homo sapiens, UniProt Q99685); assay: competitive ABPP in human brain lysate at […] ([…] decrease of MAGL signal); assay type: cell-based
T2 construct: gene MGLL
T2 sequence (Q99685 1-303): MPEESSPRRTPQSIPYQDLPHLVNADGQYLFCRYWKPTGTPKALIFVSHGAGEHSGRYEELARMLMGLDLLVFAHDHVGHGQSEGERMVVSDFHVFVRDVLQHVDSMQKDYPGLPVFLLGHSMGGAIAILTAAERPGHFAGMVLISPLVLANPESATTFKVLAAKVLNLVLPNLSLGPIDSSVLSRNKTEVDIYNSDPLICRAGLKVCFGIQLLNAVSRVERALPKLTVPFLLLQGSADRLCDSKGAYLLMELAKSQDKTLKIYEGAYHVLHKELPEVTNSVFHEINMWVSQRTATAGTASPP

O=C(Oc1ccc([N+](=O)[O-])cc1)N1CCC(C(O)(c2ccc3c(c2)OCO3)c2ccc3c(c2)OCO3)CC1 [JZL 184]
inhibition at 10 µM [1]: 78%
inhibition at 10 µM [2]: 83%
